This note sets out measurements from patent US20050245540A1, “New methods” (FUJISAWA PHARMACEUTICAL CO., LTD., priority 2003, published 2005).

For data set [1], the system named is calvaria from 5-day-old ICR mice. The data set can be described thus: Assay using mouse calvarial organ culture (calvaria bone formation assay). The conditions noted are these: test compound 1.0 × 10^−5 M added in combination with TGF-beta1; new bone area by histomorphometry after 1 week culture. Format: cell-based. As for the experimental part:
Assay using Mouse Calvarial Organ Culture
Calvaria bone formation assay was essentially performed as described by Bonewald et al. (Endocrinology 139:3178, 1998). The calvaria from 5-day-old ICR mice were excised and cut in half along the sagittal suture. Each half of the calvaria was placed on a stainless steel grid in a 12-well tissue culture dish. Each well contained BGJ media (Sigma) supplemented with 0.1% bovine serum albumine, to which the test compound was added in combination with TGF-beta1. The media was changed 24 and 96 hrs. Calvaria were maintained in humidified air (5% CO2) at 37° C. for 1 week. The calvaria were then fixed overnight in formalin, decalcified in EDTA, and were then embedded in paraffin wax. Calvaria sections were stained with hematoxylin and eosin. Histomorphometric analysis was performed using the Image-pro Plus (Trade mark, Media Cybernetics). The sum of the new bone area was determined. Rate of increase was calculated in the following; [formula] • Calvaria area is calculated using Histomorphometric analysis. • Ats: Score of area in case of addition of test compound and TGF beta1 • Atg: Score of area in case of addition of TGF beta1 • Ac: Score of area in case of no addition (Control)

Counter-ions that a name gives are not always drawn.

In general, melting point refers to the temperature of the solid-liquid transition.

Consider `COc1ccc(Cn2cc(C3CCNCC3)c3ccc(C#N)cc32)cc1Cl.Cl` [49-(6), 1-(3-Chloro-4-methoxybenzyl)-6-cyano-3-(4-piperidinyl)-1H-indole hydrochloride], for which the Rate of increase in data set [1] was 112%.

For `Cc1ccc(Cn2cc(C3CCNCC3)c3ccccc32)cc1C` [9-(5)], the Rate of increase in data set [1] was determined as 180%. `CC(C)(C)OC(=O)N1CCC(c2c[nH]c3ccccc23)CC1` [Example 1, tert-butyl 4-(1H-indol-3-yl)-1-piperidinecarboxylate] displayed a melting point of 159 to 160 °C.

Turning to `COc1ccc(Cn2cc(C3CCN(C(=O)OC(C)(C)C)CC3)c3ccc(C#N)cc32)cc1Cl` [46-(4)], in data set [1], the Rate of increase stood at 203%.

For the compound `CC(C)(C)OC(=O)NCCCCCCCN1CCC(c2c[nH]c3ccc(O)cc23)CC1` [40-(3), 3-[1-(7-tert-butoxycarbonylaminoheptyl)-4-piperidinyl]-5-hydroxy-1H-indole], the Rate of increase in data set [1] stood at 140%. For `COC(=O)c1cccc(Cn2cc(C3CCNCC3)c3ccccc32)c1` [9-(18)], the Rate of increase in data set [1] is 158%. Turning to `CC(C)(C)OC(=O)N1CCC(c2cn(S(C)(=O)=O)c3ccccc23)CC1` [Example 4, tert-butyl 4-[1-(methylsulfonyl)-1H-indol-3-yl]-1-piperidinecarboxylate], the melting point fell in the range of 136 to 137 °C.

As to `CS(=O)(=O)c1ccc(Cn2cc(C3CCNCC3)c3ccccc32)cc1` [Example 7, 1-[4-(methylsulfonyl)benzyl]-3-(4-piperidinyl)-1H-indole hydrochloride], the Rate of increase in data set [1] was 206%.
